Laboratory results as given in PubChem BioAssay AID234 (DTP/NCI, 2004).
Several values for one entry are separate records, joined by “and”; a condition that tells them apart may be missing. Equal values may be shown once. Results filed as inconclusive are left out.

Test system: C3AKF1 mice, hamster liver cystadenocarcinoma s.c., tumor weight T/C
Test: NCI In Vivo Anticancer Drug Screen. Data for tumor model Cystadenocarcinoma, Liver (No. 1) (Hamster) (subcutaneous) in C3AKF1 (CHKRF1) mice
Conditions: endpoint: mean tumor weight, schedule: Q01DX010 (ip), higher = larger tumour
Description: The antitumor activity of compounds was measured in mice bearing transplantable tumors. Survival or tumor size were measured and the results are expressed as the measurement made in the treated group (T) divided by the measurement made in the vehicle treated control group (C). The tumor model used in this assay is Cystadenocarcinoma, Liver (No. 1) (Hamster) (subcutaneous) in C3AKF1 (CHKRF1) mice

[1] = dose: 75.0 mg/kg/injection, vehicle: carboxymethylcellulose (CMC)
[2] = dose: 8.0 mg/kg/injection, vehicle: carboxymethylcellulose (CMC)
[3] = dose: 24.0 mg/kg/injection, vehicle: saline
[4] = dose: 20.0 mg/kg/injection, vehicle: carboxymethylcellulose (CMC)
[5] = dose: 40.0 mg/kg/injection, vehicle: carboxymethylcellulose (CMC)
[6] = dose: 25.0 mg/kg/injection, vehicle: carboxymethylcellulose (CMC)
[7] = dose: 50.0 mg/kg/injection, vehicle: carboxymethylcellulose (CMC)
[8] = dose: 100.0 mg/kg/injection, vehicle: carboxymethylcellulose (CMC)
[9] = dose: 200.0 mg/kg/injection, vehicle: carboxymethylcellulose (CMC)
[10] = dose: 400.0 mg/kg/injection, vehicle: carboxymethylcellulose (CMC)
[11] = dose: 600.0 mg/kg/injection, vehicle: carboxymethylcellulose (CMC)
[12] = dose: 12.5 mg/kg/injection, vehicle: carboxymethylcellulose (CMC)
[13] = dose: 125.0 mg/kg/injection, vehicle: carboxymethylcellulose (CMC)
[14] = dose: 250.0 mg/kg/injection, vehicle: carboxymethylcellulose (CMC)
[15] = dose: 500.0 mg/kg/injection, vehicle: carboxymethylcellulose (CMC)
[16] = dose: 62.0 mg/kg/injection, vehicle: carboxymethylcellulose (CMC)
[17] = dose: 250.0 mg/kg/injection, vehicle: saline
[18] = dose: 500.0 mg/kg/injection, vehicle: saline
[19] = dose: 10.0 mg/kg/injection, vehicle: carboxymethylcellulose (CMC)
[20] = dose: 62.5 mg/kg/injection, vehicle: carboxymethylcellulose (CMC)
[21] = dose: 37.5 mg/kg/injection, vehicle: carboxymethylcellulose (CMC)
[22] = dose: 30.0 mg/kg/injection, vehicle: carboxymethylcellulose (CMC)

SMILES: c1ccc(CSc2ncnc3nc[nH]c23)nc1
- T/C (dose: 18.0 mg/kg/injection, vehicle: carboxymethylcellulose (CMC)): 85 % of control
- T/C (dose: 37.0 mg/kg/injection, vehicle: carboxymethylcellulose (CMC)): 89 % of control
- T/C [1]: 90 % of control and 104 % of control
- T/C (dose: 150.0 mg/kg/injection, vehicle: carboxymethylcellulose (CMC)): 86 % of control

SMILES: CS(=O)(=O)OCCCCCCCCCOS(C)(=O)=O
- T/C [2]: 99 % of control
- T/C (dose: 16.0 mg/kg/injection, vehicle: carboxymethylcellulose (CMC)): 82 % of control

SMILES: O=P(c1ccccc1)(N1CC1)N1CC1
- T/C (dose: 3.0 mg/kg/injection, vehicle: saline): 108 % of control
- T/C (dose: 6.0 mg/kg/injection, vehicle: saline): 98 % of control
- T/C (dose: 12.0 mg/kg/injection, vehicle: saline): 76 % of control
- T/C [3]: 212 % of control

SMILES: CN(C)Nc1ncnc2nc[nH]c12
- T/C [4]: 107 % of control
- T/C [5]: 102 % of control

SMILES: O=[n+]1c2c(n([O-])c3ccccc31)-c1cccc3cccc-2c13
- T/C [6]: 64 % of control
- T/C [7]: 74 % of control
- T/C [8]: 48 % of control

SMILES: ClCCn1cnc2c(SCc3ccccc3)ncnc21
- T/C [7]: 75 % of control
- T/C [8]: 84 % of control and 97 % of control
- T/C [9]: 86 % of control and 89 % of control
- T/C [10]: 68 % of control and 80 % of control
- T/C [11]: 73 % of control

SMILES: CCN(CC)Cc1cc(Nc2c3ccccc3nc3cc(Cl)ccc23)ccc1O
- T/C (dose: 6.25 mg/kg/injection, vehicle: carboxymethylcellulose (CMC)): 84 % of control
- T/C [12]: 106 % of control
- T/C [6]: 87 % of control
- T/C [7]: 88 % of control

SMILES: CN(N=O)C(N)=O
- T/C (dose: 3.75 mg/kg/injection, vehicle: carboxymethylcellulose (CMC)): 95 % of control

SMILES: ClCCn1cnc2c(SCc3ccccc3Cl)ncnc21
- T/C [7]: 96 % of control
- T/C [8]: 64 % of control
- T/C [10]: 49 % of control

SMILES: S=c1c2[nH]cnc2ncn1CCSC1=NC=NC2=NC=NC21 (configuration not stated)
- T/C [8]: 95 % of control
- T/C [9]: 100 % of control
- T/C [10]: 97 % of control
- T/C [11]: 93 % of control

SMILES: COc1ccc(-c2c(CC(=O)O)c3cc(OC)ccc3n2Cc2ccc(Cl)cc2)cc1
- T/C [13]: 90 % of control
- T/C [14]: 100 % of control
- T/C [15]: 100 % of control

SMILES: NC(CCSCc1ccc(N(CCCl)CCCl)cc1)C(=O)O (configuration not stated)
- T/C (dose: 4.5 mg/kg/injection, vehicle: saline): 90 % of control
- T/C (dose: 9.0 mg/kg/injection, vehicle: saline): 94 % of control
- T/C (dose: 16.0 mg/kg/injection, vehicle: saline): 84 % of control
- T/C (dose: 18.0 mg/kg/injection, vehicle: saline): 52 % of control
- T/C [3]: 63 % of control
- T/C (dose: 36.0 mg/kg/injection, vehicle: saline): 55 % of control

SMILES: NC(=O)c1ccc(NC(=O)CCC(=O)Nc2ccc(C(N)=O)cn2)nc1
- T/C (dose: 1.25 mg/kg/injection, vehicle: carboxymethylcellulose (CMC)): 92 % of control
- T/C (dose: 2.5 mg/kg/injection, vehicle: carboxymethylcellulose (CMC)): 72 % of control

SMILES: O=C(O)CC(O)(CC(=O)O)C(=O)O.[Ga]
- T/C [12]: 123 % of control
- T/C [6]: 96 % of control
- T/C [7]: 79 % of control

SMILES: CCOC1=CCCCC1
- T/C [16]: 94 % of control
- T/C [13]: 106 % of control
- T/C (dose: 125.0 mg/kg/injection, vehicle: saline): 48 % of control
- T/C [17]: 95 % of control
- T/C [18]: 99 % of control

SMILES: [I][Hg][CH2]C1COCC([CH2][Hg][I])O1.[I][Hg][CH2]C1COCC([CH2][Hg][I])O1 (configuration not stated)
- T/C [19]: 83 % of control
- T/C [4]: 109 % of control
- T/C [5]: 91 % of control

SMILES: CC1(C)CC(C)(c2ccccc2)c2ccccc21 (configuration not stated)
- T/C [20]: 97 % of control
- T/C [13]: 87 % of control
- T/C [14]: 90 % of control
- T/C [15]: 65 % of control

SMILES: CCCCCCCCCCCCn1c(C)nc2ccccc21
- T/C (dose: 2.0 mg/kg/injection, vehicle: carboxymethylcellulose (CMC)): 79 % of control
- T/C [2]: 62 % of control

SMILES: CCCC(=O)NC1=C(N2CC2)C(=O)C(NC(=O)CCC)=C(N2CC2)C1=O
- T/C (dose: 0.5 mg/kg/injection, vehicle: saline): 69 % of control and 86 % of control
- T/C (dose: 0.75 mg/kg/injection, vehicle: saline): 47 % of control and 49 % of control
- T/C (dose: 1.7 mg/kg/injection, vehicle: saline): 32 % of control and 48 % of control
- T/C (dose: 2.6 mg/kg/injection, vehicle: saline): 14 % of control

SMILES: Clc1ccc2c(Cl)ncnc2c1
- T/C (dose: 4.8 mg/kg/injection, vehicle: carboxymethylcellulose (CMC)): 116 % of control
- T/C (dose: 9.5 mg/kg/injection, vehicle: carboxymethylcellulose (CMC)): 110 % of control
- T/C (dose: 19.0 mg/kg/injection, vehicle: carboxymethylcellulose (CMC)): 96 % of control
- T/C [21]: 104 % of control

SMILES: CCCCSc1nc(N)nc2c1ncn2CC(C)CC (configuration not stated)
- T/C [16]: 64 % of control
- T/C [13]: 82 % of control
- T/C [14]: 86 % of control and 94 % of control
- T/C (dose: 750.0 mg/kg/injection, vehicle: carboxymethylcellulose (CMC)): 54 % of control

SMILES: NC(N)=N/N=C/C=N/N=C(N)N
- T/C [22]: 98 % of control

SMILES: CC(=O)Nc1ccc(NC(=O)c2ccc([As](O)O)cc2)cc1
- T/C (dose: 15.0 mg/kg/injection, vehicle: carboxymethylcellulose (CMC)): 60 % of control
- T/C [22]: 77 % of control
- T/C (dose: 60.0 mg/kg/injection, vehicle: carboxymethylcellulose (CMC)): 92 % of control
- T/C (dose: 120.0 mg/kg/injection, vehicle: carboxymethylcellulose (CMC)): 91 % of control

SMILES: NNc1nncc2ccccc12
- T/C [21]: 111 % of control
- T/C [1]: 94 % of control

SMILES: CCCCCCCCCCCC[n+]1ccc(C)cc1C
- T/C (dose: 0.06 mg/kg/injection, vehicle: saline): 71 % of control
- T/C (dose: 0.12 mg/kg/injection, vehicle: saline): 75 % of control
- T/C (dose: 0.25 mg/kg/injection, vehicle: saline): 85 % of control

SMILES: CCOC(=O)C(Cc1ccc(N(CCCl)CCCl)cc1)NC=O (configuration not stated)
- T/C [19]: 93 % of control
- T/C [4]: 93 % of control
- T/C [5]: 55 % of control

SMILES: CCOC(=O)Sc1ncnc2nc[nH]c12
- T/C (dose: 14.0 mg/kg/injection, vehicle: carboxymethylcellulose (CMC)): 87 % of control
- T/C (dose: 28.0 mg/kg/injection, vehicle: carboxymethylcellulose (CMC)): 84 % of control
- T/C (dose: 56.0 mg/kg/injection, vehicle: carboxymethylcellulose (CMC)): 86 % of control

SMILES: CC1CC(C)OS(=O)O1 (configuration not stated)
- T/C (dose: 44.0 mg/kg/injection, vehicle: saline): 65 % of control
- T/C (dose: 66.0 mg/kg/injection, vehicle: saline): 81 % of control

SMILES: O=C(NO)c1ccncc1
- T/C [17]: 80 % of control
- T/C [18]: 78 % of control
- T/C (dose: 750.0 mg/kg/injection, vehicle: saline): 76 % of control

SMILES: CC(C)CCS(=O)(=O)OCCCCOS(=O)(=O)CCC(C)C
- T/C [20]: 57 % of control
- T/C [13]: 94 % of control
- T/C [14]: 57 % of control
- T/C [15]: 75 % of control
